In article PMC6920806, “Synthesis of β-D-galactopyranoside-Presenting Glycoclusters, Investigation of Their Interactions with Pseudomonas aeruginosa Lectin A (PA-IL) and Evaluation of Their Anti-Adhesion Potential” (Biomolecules, 2019):
Converted amounts (≈) assume the structure as drawn.

How the values were obtained:
lectin PA-IL [1] = target: T1, lectin PA-IL (Pseudomonas aeruginosa, UniProt Q05097); experiment: Hemagglutination inhibition assay (HIA) with microscope detection; format: biochemical
T1 construct: made in house; host or cells: Escherichia coli BL21(DE3)
Procedure: PA-IL was dissolved in the buffer with calcium ions suitable for the activity of the lectin (20 mM Tris/HCl, 150 mM NaCl, 5 mM CaCl2, pH = 7.5) to the concentration 0.25 mg mL^−1. Lectin was mixed with carbohydrate inhibitors serially diluted in the buffer in a 5 µL:5 µL ratio. Therefore, the final (working) concentration of the lectin was 0.125 mg mL^−1. A total of 10 µL of 20% papain-treated, azid-stabilized red blood cells B^+ in the buffer was then added, and the mixture was thoroughly mixed and incubated for 5 min at room temperature. After incubation, the mixture was again mixed, transferred to a microscope slide, and examined. The examination was conducted using the Levenhuk D2L NG Digital Microscope (Levenhuk, Tampa, FL, USA). Images were obtained with a Levenhuk D2L digital camera (Levenhuk, Tampa, FL, USA) using the software ToupView for Windows (Version 3.7, Levenhuk, Tampa, FL, USA). The positive (experiment without inhibitor) and negative control (experiment without lectin) were prepared and processed in the same way using the appropriate volume of dissolving buffer instead of the omitted components. The minimal inhibitory concentration (MIC) of the inhibitor able to inhibit hemagglutination was determined and compared with the standard (D-galactose) and the potency of the inhibitor was calculated (MIC of the standard/MIC of the inhibitor).

lectin PA-IL [2] = target: T1, lectin PA-IL; experiment: SPR inhibition of PA-IL binding to immobilized D-galactosides
Procedure: Surface plasmon resonance (SPR) experiments were performed on a BIAcore T200 instrument (GE Healthcare, Chicago, IL, USA) at 25 °C, using HBST running buffer (10 mM HEPES, 150 mM NaCl, 0.5 mM CaCl2, 0.05% Tween 20, pH = 7). A CM5 sensor chip (GE Healthcare, Chicago, IL, USA) covered with a carboxymethylated dextran matrix was used for ligand immobilization. The sensor chip surface was activated with N-ethyl-N-(3-dimethylaminopropyl)carbodiimide/N-hydroxysuccinimide solution and then coated with streptavidin (Sigma-Aldrich, St. Louis, MO, USA) in 10 mM acetate pH = 5.0 according to the manufacturer’s standard protocol to a final response of 7000 RU. Unreacted groups were blocked with 1 M ethanolamine-HCl, pH = 8.5. 0.5 mM biotinylated carbohydrate (1:1 mixture of biotin-α-D-galactoside and biotin-β-D-galactoside for measuring channel and α-L-fucoside for blank channel, all Lectinity, Moskow, Russia) was injected into a particular channel at a flow rate of 5 μL min^−1.
In the experimental setup, SPR inhibition measurements were carried out simultaneously on both measuring and blank channels at a flow rate of 5 µL min^−1. […] The response of the blank channel was subtracted from the response of lectin bound to the galactose-modified surface at equilibrium and plotted against the concentration of inhibitor in order to determine IC50 (concentration of inhibitor resulting in 50% inhibition of binding). As IC50 is not a constant and depends on the experimental set-up, a parameter called potency was used for characterization. The potency of a tested inhibitor is the ratio of IC50 of a chosen standard inhibitor (in this case, D-galactose) and the inhibitor in question. Pure lectin PA-IL was used as a control (0% inhibition).

lectin PA-IL [3] = target: T1, lectin PA-IL; experiment: Analytical ultracentrifugation (sedimentation velocity), cross-linking of lectin; conditions: protein:ligand ratios 1:0.1, 1:1, 1:10
Procedure: Analytical ultracentrifugation experiments were performed using ProteomeLab XL-I analytical ultracentrifuge (Beckman Coulter, Indianapolis, IN, USA) equipped with an An-60 Ti rotor. Sedimentation velocity experiments were conducted in titanium double-sector centerpiece cells (Nanolytics Instruments, Potsdam, Germany) loaded with 390 µL of both protein sample and reference solution (PBS buffer, pH = 7.5). PA-IL without the added ligand and PA-IL samples pre-incubated with different concentrations of galactosylated dendrimers 4, 7, 10 and 13 and D-galactose (protein:ligand ratios of 1:0.1, 1:1 and 1:10) were analyzed by the sedimentation velocity experiment. All the measurements were performed in PBS buffer with 22 µM PA-IL. Data were collected using absorbance optics at 25 °C at a rotor speed of 48,000 rpm. Scans were collected at 280 nm (or alternatively at 294 nm to decrease the absorbance signal of the samples containing excess of the UV-absorbing ligands 4 and 10) at 5-min intervals and 0.003 cm spatial resolution in continuous scan mode. The partial specific volume of the protein and the solvent density and viscosity were calculated from the amino acid sequence and buffer composition, respectively, using the software Sednterp (http://bitcwiki.sr.unh.edu). The data were analyzed with the continuous c(s) distribution model implemented in the program Sedfit 15.01b. For the regularization procedure, a confidence level of 0.95 was used. The plots of c(s) distributions were created in GUSSI 1.3.1 [28].

lectin PA-IL [4] = target: T1, lectin PA-IL; experiment: Isothermal titration microcalorimetry (ITC); format: binding
Procedure: All the experiments were performed on MicroCal iTC200 (Malvern Instruments, Malvern, UK) at 25 °C. The freeze-dried lectin PA-IL was dissolved in 0.1 M Tris/HCl, 500 μM CaCl2, pH = 7.5, and equilibrated at room temperature for 1 h before ITC measurements. Multivalent galactosylated compounds 4, 7, 10 and 13 were diluted in the same buffer and used in 0.25–0.5 mM concentrations. Aliquots of 2 µL of the compounds were added automatically to the 0.078 mM or 0.088 mM PA-IL in the calorimeter cell. Blank experiments (injections of compounds to the buffer) were performed and heat responses were subtracted. Integrated heat effects were analyzed by global fitting of data obtained from three independent titrations for each tested compound by non-linear regression using a single site-binding model (Microcal Origin 7, Malvern Instruments, Malvern, UK). Fitted data yielded the association constant (Ka) and the enthalpy of binding (ΔH). Other thermodynamic parameters, i.e., changes in free energy (ΔG) and entropy (ΔS), were calculated from the following equation: ΔG = ΔH − TΔS = −RT ln Ka, where T is the absolute temperature and R = 8.314 J mol^−1 K^−1. The monosaccharide D-galactose was used as a control; 4 mM D-galactose was added to the 0.147 mM PA-IL in the calorimeter cell. Two titration experiments were performed and the heat responses were processed and evaluated as mentioned above.

[5] = tested on: adhesion of P. aeruginosa (ST 1763) to epithelial bronchial cells (CuFi-1); set-up: method as in PMID 31216664; conditions: previous study; cited from earlier work

T1 sequence (Q05097 2-122): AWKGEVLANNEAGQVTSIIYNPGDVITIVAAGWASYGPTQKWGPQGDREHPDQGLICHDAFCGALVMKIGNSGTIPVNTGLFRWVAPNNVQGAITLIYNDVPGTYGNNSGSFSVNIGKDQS

| Compound | Potency (MIC of standard/MIC of inhibitor) (lectin PA-IL [1]; HIA, standard D-galactose) | β (Potency/Valency) (lectin PA-IL [1]; HIA, standard D-galactose) | MIC (minimal inhibitory concentration) (lectin PA-IL [1]; inhibition of hemagglutination caused by PA-IL (0.125 mg mL−1), papain-treated red blood cells B+) | IC50 (lectin PA-IL [2]) | Potency (IC50 of standard/IC50 of inhibitor) (lectin PA-IL [2]; SPR, standard D-galactose) | β (Potency/Valency) (lectin PA-IL [2]; SPR, standard D-galactose) | cross-linking of PA-IL (formation of the 6.4 S particle) (lectin PA-IL [3]) | Kd (lectin PA-IL [4]) | ΔH (lectin PA-IL [4]; ITC, 25 °C) | −T ΔS (lectin PA-IL [4]; ITC, 25 °C, calculated from ΔG = ΔH − TΔS) | ΔG (lectin PA-IL [4]; ITC, 25 °C, calculated from −RT ln Ka) | n (stoichiometry) (lectin PA-IL [4]; ITC, 25 °C, single site-binding model) | most effective concentration [5] |
| --- | --- | --- | --- | --- | --- | --- | --- | --- | --- | --- | --- | --- | --- |
| O=C[C@H](O)[C@@H](O)[C@@H](O)[C@H](O)CO [D-galactose, reference compound] | 1 | 1 | 6.25 mM (≈ 1130 µg/mL) | 187 µM | 1 | 1 | negligible effect | 147 µM | -9.03 ± 0.698 kcal/mol | 3.8 ± 0.507 kcal/mol | -5.23 ± 0.294 kcal/mol | 0.78 ± 0.05 |  |
| C[C@@H]1O[C@@H](OCc2cn(CCOCCOCCOCCn3cc(COCC(COCc4cn(CCOCCOCCOCCn5cc(CO[C@@H]6O[C@@H](C)[C@@H](O)[C@@H](O)[C@@H]6O)nn5)nn4)(COCc4cn(CCOCCOCCOCCn5cc(CO[C@@H]6O[C@@H](C)[C@@H](O)[C@@H](O)[C@@H]6O)nn5)nn4)COCc4cn(CCOCCOCCOCCn5cc(CO[C@@H]6O[C@@H](C)[C@@H](O)[C@@H](O)[C@@H]6O)nn5)nn4)nn3)nn2)[C@@H](O)[C@H](O)[C@@H]1O [Compound 14] |  |  |  |  |  |  |  |  |  |  |  |  | 250 µM |
